Reference: US20210353769A1, “SURFACE MODIFIED EXTRACELLULAR VESICLES” (City University of Hong Kong, priority 2018, published 2021)

Tested on: H358 cells
Assay: Uptake of Calcein AM-labelled RBCEVs by H358 cells (FACS)
Type: cell-based, human
Settings: 5-20 μg/ml Filipin
Protocol: To test the uptake of RBCEVs by the cells, we labelled RBCEVs with Calcein AM, a fluorescent dye, and sortagged the labelled RBCEVs with biotinylated EGFR-targeting peptide as described above. The labelled and sortagged RBCEVs were washed extensively with SEC and 2 rounds of centrifugation. We incubated H358 cells with a suboptimal dose of the labelled RBCEVs and analysed Calcein AM fluorescence in the cells after 2 hours of incubation (FIG. 8C). The fluorescent background was determined based on the supernatant of the last wash (flowthrough) of the labelled RBCEVs.
In a shorter uptake assay, H358, HCC827, MOLM13 and THP1 cells were incubated with Calcein AM-labelled RBCEVs for 1 to 2 hours at 37° C. To identify the route of EV uptake, we added 25-100 μM EIPA, 5-20 μg/ml Filipin, 0.25-1 μM Wortmannin.
Flow cytometry of latex beads or cells in FACS buffer was performed using a CytoFLEX-S cytometer (Beckman Coulter) and analyzed using Flowjo V10 (Flowjo, USA). The beads or cells were initially gated based on FSC-A and SSC-A to exclude the debris and dead cells (low FSC-A). The cells were further gated based on FSC-width vs. FSC-height, to exclude doublets and aggregates.

CCCCC[C@@H](O)[C@H]1C(=O)O[C@H](C)[C@@H](O)/C=C/C=C/C=C/C=C/C=C(\C)[C@@H](O)C[C@H](O)C[C@H](O)C[C@H](O)C[C@H](O)C[C@H](O)C[C@@H]1O [Filipin]
effect of endocytosis inhibitor on uptake of ET-ligated RBCEVs: reduce the uptake
